≈ marks a conversion by molar mass, not a printed value.
Experiments:
in vivo = conditions: mouse, iv
[1] = tested on: Enterococcus faecium ATCC 10541; assay: Anti-bacterial activity, MIC by agar dilution method; format: cell-based; conditions: ATCC10541, pH 7.0, read-out: minimum inhibitory concentration (MIC)
Description: (§1) The following Table 1 indicates minimum inhibitory concentration (MIC) of DC114-C against selected microorganisms, measured by the agar dilution method at pH 7.0.

[2] = tested on: Staphylococcus aureus ATCC 6538P; assay: as above; format: cell-based; conditions: ATCC6538P, pH 7.0, read-out: minimum inhibitory concentration (MIC)
Description: as §1

[3] = tested on: Salmonella typhi ATCC 9992; assay: as above; format: cell-based; conditions: Salmonella enterica, pH 7.0, read-out: minimum inhibitory concentration (MIC)
Description: as §1

[4] = tested on: Klebsiella pneumoniae ATCC 10031; assay: as above; format: cell-based; conditions: ATCC10031, pH 7.0, read-out: minimum inhibitory concentration (MIC)
Description: as §1

[5] = tested on: Bacillus subtilis No. 10707; assay: as above; format: cell-based; conditions: pH 7.0, read-out: minimum inhibitory concentration (MIC)
Description: as §1

[6] = Solubility in various solvents
Balb 3T3/H-ras cells = assay: Growth inhibition against Balb 3T3/H-ras cells (neutral red); format: cell-based; conditions: Mus musculus, BALB/3T3, read-out: IC50 (concentration required for 50% inhibition of the growth of the cells); 72 hours, 37° C.
Description: Into each well of a 96 well microtitre plate was poured a Balb 3T3/H-ras cell suspension (each 0.1 ml), containing 2×10^4 cell/ml and prepared by suspending the cells in medium A. Medium A was prepared by adding to F10 medium (commercial product of Gibco) fetal calf serum (0.1 g/ml), penicillin (100 Unit/ml) and streptomycin (100 μg/ml).
On each occasion, the plate was incubated at a temperature of 37° C. for 20 hours in a carbon dioxide incubator. Then a test sample of DC114-C was suitably diluted with medium A. The diluted sample (0.05 ml) was added to each well, followed by incubation at a temperature of 37° C. for 72 hours in the incubator. After this, the supernatant was removed from the medium. Another medium (each 0.1 ml), prepared by adding to medium A neutral red (0.02%), was added to each well. The cells were dyed by incubation at a temperature of 37° C. for one hour in the incubator.
The supernatant was removed and the residue was washed once with physiological saline. After removal of the dyestuff by using a mixture of 0.001N hydrochloric acid and 30% ethanol, a micro-plate reader was applied to the material to measure the absorbance at 550 nm. The following Table 2 indicates the results obtained by comparing the absorbance of untreated cells with the absorbance of the test sample measured at various concentrations.

Sarcoma 180 tumour cells = assay: Curing effect on Sarcoma 180 tumour cells; format: in vivo, female mice of ddy strain; conditions: i.v., 5 times at 24 h intervals, 10 days after inoculation
Description: As test animals, female mice of ddy strain (body weight about 20 g; each group consisting of 6 mice) were used. 5×10^6 Sarcoma 180 tumour cells were, on each occasion, inoculated into the animal under the skin of the armpit. From the first to 5th days after this, a dose of phosphate-buffered physiological saline (PBS; 0.2 ml) containing a given concentration of DC114-C as shown in Table 3 was intravenously given to the test animal. The administration was effected 5 times with an interval of 24 hours between each. […] 10 days after inoculation, T/C values viz. the ratio of the average volume (mm^3) of the tumours found on the animals treated with the test compounds to the corresponding volume found on the untreated animals were measured and these are shown in the following Table 3.

Cc1cc2c(O)c3c(cc2c2oc(C4(C)OC4C4CO4)cc(=O)c12)C(=O)C1OC1(C1CC(=O)C(O)C(C)O1)C3O (stereo not shown) [DC114-C]
LD50 (in vivo): 17.6 mg/kg | MIC [1]: 0.13 µg/mL (≈ 0.236 µM) | MIC [2]: 0.07 µg/mL (≈ 0.127 µM) | MIC [3]: 8.3 µg/mL (≈ 15.1 µM) | MIC [4]: 4.2 µg/mL (≈ 7.63 µM) | MIC [5]: 0.26 µg/mL (≈ 0.472 µM) | Solubility in chloroform, dimethylsulfoxide (DMSO), methanol, ethyl acetate and acetone ([6]; chloroform, DMSO, methanol, ethyl acetate, acetone): Readily soluble | Solubility in water and n-hexane ([6]; water, n-hexane): Hardly soluble | IC50 (Balb 3T3/H-ras cells): 0.06 µg/mL (≈ 0.109 µM) | T/C (ratio of average tumour volume, treated to untreated) (Sarcoma 180 tumour cells; 0.78 mg/kg each): 0.56 | T/C (ratio of average tumour volume, treated to untreated) (Sarcoma 180 tumour cells; 1.56 mg/kg each): 0.48 | T/C (ratio of average tumour volume, treated to untreated) (Sarcoma 180 tumour cells; 3.13 mg/kg each): 0.26 | T/C (ratio of average tumour volume, treated to untreated) (Sarcoma 180 tumour cells; 6.25 mg/kg each): 0.15

From patent publication US5082857A, “Chemical compound” (Kyowa Hakko Kogyo Kabushiki Kaisha, priority 1989, dated 1992)
